# Reference: PubChem BioAssay AID2305 (GlaxoSmithKline (GSK), 2010)
# Test system: P. falciparum 3D7 growth, pLDH absorbance
# Test: blood-stage malaria parasite growth potency – strain 3D7, dose response (AID 2305)
row,SMILES,IC50 [nM]
1,COc1ccccc1CCNc1nc(C)cc(N[C@@H](CC(C)C)C(=O)NCCc2ccccc2)n1,720
2,COc1cc(Cc2cnc(N)nc2N)ccc1OCc1ccc(F)c(F)c1,910
3,FC(F)(F)c1cc(C(F)(F)F)c2cc(CNCCCNc3nc4ccccc4[nH]3)[nH]c2c1,140
4,COc1ccc(Cl)cc1N1CCN(CCCNC(=O)c2ccc(-c3nc4ccncc4[nH]3)c(Br)c2)CC1,1150
5,COc1ccc(CNC(=O)Nc2cc3cc(-c4ccc(CN5CCCC5)cc4)ccc3n3c(C)nnc23)cc1,650
6,NC(=O)C1CCN(Cc2cccc(-c3cccc(-c4nc5ccc(F)cc5[nH]4)c3)c2)CC1,850
7,O=C(N[C@H]1CCN(Cc2ccc(OC3CCN(Cc4ccccc4)CC3)c(Cl)c2)C1)c1ccc(Cl)c(Cl)c1,810
8,C=C1C[C@@H](n2cnc3c(NC(=O)c4ccccc4)ncnc32)[C@@H](F)[C@@H]1OC(c1ccccc1)(c1ccccc1)c1ccccc1,140
9,CC(Oc1ccc(Cl)cc1Cl)c1nc(-c2ccc(NC(=O)c3ccco3)cc2)no1 (stereo unspecified),900
10,Cc1ccc(C)c(NC(=O)NCCNc2ccnc(Nc3ccc(F)cc3)n2)c1,820
11,CCCN(CCC)S(=O)(=O)c1ccc(C(=O)Nc2nc3ccc(-c4cc(=O)[nH]c(Nc5ccccc5Cl)n4)cc3[nH]2)cc1,590
12,CCN(CC)CCN(CCCc1ccc(-c2ccc(C(F)(F)F)cc2)cc1)C(=O)Cn1c(CCc2cccc(F)c2F)nc(=O)c2ccccc21,770
13,COc1cc2nc(N(C)Cc3cc4c(Cl)cccc4s3)nc(N)c2cc1OC,950
14,O=C(/C=C/c1cccs1)NC1CCC(CN2CCC(c3c[nH]c4ccccc34)CC2)CC1 (stereo unspecified),1050
15,COc1ccc2cc(CNCCCCCCNCc3ccc4cc(OC)ccc4c3)ccc2c1,620
16,Cc1cccc2[nH]c(-c3cccc(-c4ccc(CN5CCC(C(N)=O)CC5)cc4)c3)nc12,850
17,Cc1noc(-c2ccccc2)c1CN1CCCC2(CC(C(=O)NCc3cccc(F)c3F)=NO2)C1 (stereo unspecified),1010
18,COc1ccc(Br)cc1C1[C@@H]2C(=O)N(c3ccc(Br)cc3)C(=O)[C@@H]2C2(C(=O)O)CC(OCc3ccccc3)CN12 (stereo partly specified),190
19,Cn1cnc(CCNC(=O)c2ccc(-c3ccc(-c4nc5ccc(C(F)(F)F)cc5[nH]4)s3)cc2)c1,400
20,c1ccc2c(NCCOCCNc3c4ccccc4nc4ccccc34)c3ccccc3nc2c1,880
21,N#Cc1ccc(C2CCN(CC[C@H](N)Cc3ccc(Cl)s3)CC2)cc1,1260
22,Cc1ccc(NS(=O)(=O)c2cccs2)cc1-c1cccc(C(=O)Nc2ccc(F)cc2)c1,650
23,O=C(Nc1ccc(-c2ccc(-c3nc4ccc(C(F)(F)F)cc4[nH]3)cc2)cc1)Nc1ccc(F)c(F)c1F,220
24,COc1ccc2nccc([C@@H](O)CNCCCN(C)CCOc3cc(F)cc(F)c3)c2c1,790

row,SMILES,IC50 [nM]
1,CC(C)Nc1cc(C(=O)N[C@@H](Cc2ccccc2)[C@H](O)CNC2CCOCC2)c(F)c(N2CCCCS2(=O)=O)c1,180
2,O=C(Nc1ccc(F)cc1)c1nc2ccccc2nc1Cl,1230
3,CN1CC[C@@H](Oc2cc(NC(=O)Nc3ccc(Cl)c(C(F)(F)F)c3)ccc2Cl)C1,990
4,CN(CCO)Cc1cccc(-c2ccc(NC(=O)c3cccc(C#N)c3)cc2)c1,800
5,O=c1c2ccccc2[nH]c2nc3ccccc3c(Nc3ccccc3)c12,140
6,Cc1nc(Nc2ccncc2)cc(-c2ccncc2)n1,730
7,Cc1cccc2[nH]c(-c3cccc(-c4ccc(NC(=O)c5cccnc5)cc4)c3)nc12,590
8,CCOC(=O)C(C)(C)Oc1ccc(CN(Cc2ccc(CC(C)C)cc2)C(=O)Nc2ccc(F)cc2F)c(OC)c1,240
9,O=C(NCc1ccc(F)cc1)c1ccc(N2CCN(c3ccncc3)CC2)cn1,890
10,Cc1cc(Nc2cccc(C#N)c2)nc(Nc2ccccc2C)n1,860
11,Cc1ccc(N2C(N)=NC(N)=NC2(C)C)cc1,40
12,Oc1ccccc1CCNCC1CCc2ccccc2C1 (stereo unspecified),690
13,N=c1c(C(=O)NCc2ccccc2)cc2c(=O)n3ccccc3nc2n1CCc1ccccc1,530
14,O=C(NC(c1ccccc1)c1ccc2cccnc2c1O)c1ccccc1 (stereo unspecified),430
15,O=C(NC1CC1)c1ccc(N2CCC(COc3cccc(F)c3)CC2)nc1,1240
16,Cc1ccc(NC(=O)Nc2ccccc2)cc1-c1ccc(C(=O)Nc2ccncc2)cc1,240
17,CN1CCN(Cc2ccc(OCc3cccc(COc4ccc(CN5CCN(C)CC5)cc4I)c3)c(I)c2)CC1,1010
18,COc1cccc(CC(C)NCC(O)c2cccc(Cl)c2)c1 (stereo unspecified),1270
19,CCCCN(CCCC)C(=O)CC(O)c1cc2c(Cl)cc(Cl)cc2c2cc(C(F)(F)F)ccc12 (stereo unspecified),1210
20,COc1ccc(OC)c(CNCC(O)c2cc(C(F)(F)F)cc(C(F)(F)F)c2)c1 (stereo unspecified),440
21,COc1cc2nc(NCCn3ccnc3C)nc(NCCc3ccccc3)c2cc1OC,730
22,FC(F)(F)c1ccc2c(NCCNc3ccnc4cc(C(F)(F)F)ccc34)ccnc2c1,30
23,CC(C)N(Cc1ccc(-c2ccc(C(F)(F)F)cc2)cc1)C(=O)Cn1c(CCc2cccc(F)c2F)cc(=O)c2ccc(CCCN3CCCCC3)cc21,740
24,CCOC(=O)CCCOc1c(OC)cc(Cc2cnc(N)nc2N)cc1OC,780

row,SMILES,IC50 [nM]
1,CS(=O)(=O)CCOCc1ccc(-c2ccc3ncnc(Nc4ccc(OCc5cccc(F)c5)c(Cl)c4)c3c2)o1,800
2,CC[C@H]1CN2CC[C@@H]1C[C@H]2[C@H](O)c1cc(N2CCC(O)CC2)nc2ccc(OC)cc12,170
3,CN1CCN(CCCN(Cc2cccc(-c3ccc(CNCCc4ccccc4)cc3)c2)C(=O)Nc2ccccc2)CC1,830
4,CCCCNC(=O)[C@H](CC1CCCCC1)NC(=O)c1ccc(O)c(-c2ccc(OC)cc2)c1,920
5,Cn1cnc2c(SCc3ccccc3OCc3ccccc3)ncnc21,920
6,c1cncc(CCNCc2ccc(-c3cccc(-c4nc5ccccc5[nH]4)c3)cc2)c1,160
7,CCN1CCN(c2cc(C)c3cc(NC(=O)c4ccc(OC)c([N+](=O)[O-])c4)ccc3n2)CC1,550
8,CCCCc1cc(NCc2ccncc2)nc(Nc2ccc(OC)cc2)n1,1060
9,COc1ccc(NC(=O)NC2CCN(c3ccnc4ccccc34)C2)cc1 (stereo unspecified),870
10,Cc1c(Cc2ccccc2Cl)cnc2nc(N)nc(N)c12,10
11,Cc1ccc(CN2CCC(Oc3cccc(NC(=O)c4ccc(C(F)(F)F)cc4)c3)CC2)cc1,1020
12,CC(C)C[C@H](NC(=O)c1ccc(OCCN2CCOCC2)cc1)C(=O)N[C@H](/C=N/N1CCN(C)C1=O)CCc1ccccc1,290
13,CCCC(CC)n1ccc2c3c(N)nc(N)nc3ccc21 (stereo unspecified),10
14,CCCc1ccc(N2C(N)=NC(N)=NC2(C)C)cc1,30
15,CCOC(=O)c1c(C)n(-c2ccccc2)c2ccc(OC(=O)COc3ccc(Cl)cc3Cl)cc12,430
16,COCCN1CCC(CNCC(C)(C)c2nc(-c3ccc(Cl)c(O)c3)c(-c3ccncc3)[nH]2)CC1,750
17,Cc1ccc(-c2ccc3c(c2)C=C(C(=O)NCC2CCN(CC4CCN(C(=O)/C=C/c5ccc(Cl)c(Cl)c5)CC4)CC2)CCC3)cc1,780
18,Fc1ccc2nc(-c3cccc(-c4cccc(CNCCc5ccncc5)c4)c3)[nH]c2c1,170
19,CC(=O)N(C)C1CCN(Cc2cccc(-c3ccc(-c4nc5ccc(C(F)(F)F)cc5[nH]4)cc3)c2)C1 (stereo unspecified),560
20,O=C(N[C@H]1CCN(Cc2ccc(OC3CCN(Cc4ccccc4)CC3)c(Br)c2)C1)c1ccc(Cl)c(Cl)c1,780
21,Cc1[nH]c(C)c(-c2ccc(-c3ccccc3C(F)(F)F)nc2)c(=O)c1Br,170
22,COc1cc(-c2ccc(-c3cnc(N)nc3OC)[nH]2)cc(OC)c1OC,730
23,Nc1nccc2ccc(-c3ccc(NC(=O)Nc4cc(C(F)(F)F)ccc4F)cc3)cc12,90
24,COc1ccc2nccc([C@@H](O)CN3CCC(NCc4ccc5nnsc5c4)CC3)c2c1,710

row,SMILES,IC50 [nM]
1,COc1ccc(COc2c(OC)cc(Cc3cnc(N)nc3N)cc2OC)cc1,910
2,CCCCCN1CCC(NS(=O)(=O)c2ccc(C(=O)Nc3cccc(C(F)(F)F)c3)cc2)C1 (stereo unspecified),1000
3,O=S(=O)(NC1CCN(c2ccnc3cc(Cl)ccc23)C1)c1cccs1 (stereo unspecified),700
4,O=C(NC1CCN(c2ccc(F)cc2[N+](=O)[O-])CC1)c1cccs1,670
5,COc1cccc(CNC(=O)NC2CCN(c3ccnc(Nc4ccc(F)cc4)n3)C2)c1 (stereo unspecified),810
6,CC(C)(C)c1ccc(-c2cc(C(=O)N[C@@H](CO)C(=O)O)on2)cc1 (tested in a mixture with another compound),970
7,Nc1ncnc2cc(-c3cccc(S(N)(=O)=O)c3)sc12,150
8,NC(=O)c1ccccc1OCC(=O)Nc1cccc(-c2cccc(-c3nc4ccccc4[nH]3)c2)c1,380
9,O=C(/C=C/c1ccc(Cl)c(Cl)c1)NCCC1CCC(N2CCC(c3c[nH]c4ccc(O)cc34)CC2)CC1 (stereo unspecified),760
10,Cc1noc(C)c1-c1cccc(CNCc2cccc(-c3ccc(-c4nc5c(C)cccc5[nH]4)cc3)c2)c1,190
11,CCC(C)OC(=O)C1=C(C)NC2=C(C(=O)CC(c3ccc(OC)c(OC)c3)C2)C1c1cccc(O)c1 (stereo unspecified),190
12,Cc1cc(NC(=O)NCCN2CCC(NS(=O)(=O)c3ccccc3F)CC2)c2ccccc2n1,950
13,CCCC(C)NC(=O)[C@H]1CNCCN1C(=O)CCCc1ccccc1 (stereo partly specified),190
14,COc1cc(C(C)C)ccc1N1CCN(CCCCNC(=O)c2ccc(NC(=O)c3ccc(Cl)cc3)cc2)CC1,580
15,Cn1nc2ccc3ccccc3c2nc1=N,770
16,CN(c1ccc(C(=O)N[C@@H](CCC(=O)O)C(=O)O)cc1)S(=O)(=O)c1ccc2nc(N)[nH]c(=O)c2c1,150
17,COc1ccc2nccc([C@@H](O)CN3CCC(NC(=O)/C=C/c4ccc(Cl)c(C(F)(F)F)c4)CC3)c2c1,290
18,Cn1nc(C(F)(F)F)cc1-c1ccc(C(=O)Nc2ccc3c(c2)CNCC3(C)C)s1,1010
19,O=C(Cc1ccccc1)NC(c1ccc(Cl)cc1)c1ccc2cccnc2c1O (stereo unspecified),860
20,COc1ccc(Cl)cc1N1CCN(CCCNC(=O)c2ccc(-c3nc4cc(Cl)c(F)cc4[nH]3)s2)CC1,310
21,O=C(Nc1cccc(CN2CCCN(Cc3ccc(O)cc3)CC2)c1)c1cccc(F)c1,900
22,CCCCCCCc1c(C)[nH]c2ccccc2c1=O,210
23,CN(C)CCOc1ccc(-c2cc(-c3ccnc(N)n3)c(-c3ccc(Cl)c(O)c3)o2)cc1,980
24,CN1CCN(Cc2nc(-c3ccc4c(Nc5ccc(F)c(O)c5)ccnc4c3)cs2)CC1,170
